The test system of test [1] is Pin1-WW domain (WW domain of Pin1). In words: ITC binding to Pin1-WW. To be noted: 310 K, PBS pH 7.4, Pin1-WW 81.4 μM in cell, P33 in syringe. Here is the method: Synthesis of acetyl-Fe65-WW, acetyl-Pin1-WW, and the control PPPPP (structures involved in Figure 2) was carried out on a Rink Amide AM (0.3 mmol∙g^−1) resin using Fmoc chemistry and activation with HATU in the presence of DIPEA. Cleavage was achieved by a treatment with TFA/H2O/triisopropylsilane/1,4-dithio-DL-threitol/phenol (90:5:3:1:1) at room temperature (RT). TFA was removed in vacuo, the peptides were then precipitated using cold, dry diethyl-ether, dissolved in ACN/H2O and lyophilized.
Isothermal titrations were performed using a Microcal VP-ITC (Malvern Instruments, Malvern, UK) microcalorimeter. Binding experiments were carried out in degassed phosphate-buffered saline (PBS) at pH 7.4. The concentrations of Fe65-WW and Pin1-WW were normalized for the peptide contents. In one titration experiment, 10-μL portions of the ligand-containing solution (P33 or PPPPP) were injected from a computer-controlled 300-μL microsyringe at intervals of 300 s into the solution of the WW domain (Fe65-WW or Pin1-WW), dissolved in the same buffer as for the ligand. The rev of the microsyringe was set to 307 rpm. […] Control experiments were performed by injecting P33 or PPPPP into the cell containing plain buffer without the WW domain, with results achieved via subtracting the dilution heats from those measured in the presence of the WW domain.

In test [2] the test system is Aβ plaques. In words: 4G8 immunohistochemistry, Aβ plaque density. The class given is in vivo, mouse. Conditions: HC and CTX; 5 mg∙kg^−1 i.p., six months; five animals per group. As for the experimental part:
(§1) For this study, three-month-old male and female WT and APP/PS1 mice (n = 37) were used. Four groups were defined: WT-vehicle (physiological saline) (male n = 4; female n = 6), WT-P33 (male n = 6; female n = 5), APP/PS1-vehicle (male n = 3; female n = 5), and APP/PS1-P33 (male n = 6; female n = 2). Animals were subjected to intraperitoneal (i.p.) injections of P33 (5 mg∙kg^−1) for five days per week, over a course of six months. The mice were kept in groups under constant temperature (23 ± 0.5 °C), lighting (12-h/12-h light/dark cycle, lights on at 7:00 a.m.), and humidity (~50%). Standard mouse chow and tap water were supplied ad libitum. All behavioral experiments were performed in the light period. Handling was done daily at the same time.
(§2) Mice (five animals per group) were anaesthetized with chloral-hydrate (1 mg∙kg^−1) and perfused transcardially with PBS, followed by ice-cold 4% paraformaldehyde. The brains were removed, post-fixed in the same fixative, and immersed in a 30% sucrose solution containing 0.01% sodium-azide. […]
(§3) Slides were scanned by a digital slide scanner (Mirax Midi, 3DHistech Ltd., Budapest, Hungary), equipped with a Pannoramic Viewer 1.15.4, CaseViewer 2.1 program and a QuantCenter, HistoQuant module (3DHistech Ltd., Budapest, Hungary). For quantification, all of the sections were analyzed. […] Antibody-positive cell types from the ROIs were counted and quantified. […]

Test [3] deals with GFAP-positive astrocytes. In words: GFAP immunohistochemistry, astrocyte density. Format: in vivo, mouse. Conditions: APP/PS1-vehicle vs. WT-vehicle, WT-P33, APP/PS1-P33; whole HC and CTX; 5 mg∙kg^−1 i.p., six months. Here is the method:
as §1, §2, §3

In test [4] the test system is Iba1-positive microglia. In words: Iba1 immunohistochemistry, microglia density. Format: in vivo, mouse. To be noted: APP/PS1-vehicle vs. WT-vehicle, WT-P33, APP/PS1-P33; HC and CTX; 5 mg∙kg^−1 i.p., six months. Here is the method:
as §1, §2, §3

Entries after “also recorded” stand apart in the source; their conditions may differ. Where a SMILES comes first, the peptide text is derived from it.

With `C[C@@H](N)C(=O)N1CCC[C@@H]1C(=O)N[C@H](C)C(=O)N1CCC[C@@H]1C(=O)N[C@H](CCC(=O)O)C(N)=O` [P33] (HELM PEPTIDE1{[dA].[dP].[dA].[dP].[dE].[am]}$$$$V2.0), the “binding to Pin1-WW (in words)” value in test [1] was “no considerable binding; also recorded: no detectable binding to the Pin1-WW could be observed”. The “Aβ plaque density, effect of P33 (in words)” value in test [2] is given as “significantly decreased the plaque density in APP/PS1-P33 mice”. In addition, the “density of hyperreactive (GFAP-positive) astrocytes (in words)” value in test [3] is “higher in the whole HC and CTX of the APP/PS1-vehicle group, than in the other three groups”. The “density of Iba1-positive microglia (in words)” value in test [4] was “higher in the APP/PS1-vehicle treated mice than in the other groups”.

These data come from PMC6627374, “Effects of the Pentapeptide P33 on Memory and Synaptic Plasticity in APP/PS1 Transgenic Mice: A Novel Mechanism Presenting the Protein Fe65 as a Target” (International Journal of Molecular Sciences, 2019).
